Measured values published in ChEMBL document CHEMBL5247617, “4-Arylthiosemicarbazide derivatives - Pharmacokinetics, toxicity and anti-Toxoplasma gondii activity in vivo” (Eur J Med Chem, 2022).
Calls of active or inactive are those of the source. No cut-off for these calls is given here.

Experiments:
[1] = Toxicity in BALB/c mouse assessed as changes in liver weight at 50 mg/kg, po administered for 5 days and measured after 14 days; assay type: organism-based; conditions: in vivo, 120 h, time 5 day
Toxoplasma gondii [2] = assay: Antiparasitic activity against Toxoplasma gondii RH infected in human Hs27 cells assessed as parasitic growth inhibition incubated for 24 hrs followed by [5,6-3H] uracil addition and measured after 72 hrs by liquid scintillation counter analysis; assay type: functional, organism-based
[3] = Cmax in BALB/c mouse brain at 50 mg/kg, po measured upto 24 hrs by LC-MS/MS analysis; assay type: ADME, organism-based; set-up: time < 24 hrs, dose 50 mg/kg, route po; conditions: in vivo
[4] = Toxicity in BALB/c mouse assessed as increase in serum ALT level at 50 mg/kg, po administered for 5 days and measured after 14 days by ELISA method; assay type: organism-based; conditions: in vivo, 120 h, time 5 day
[5] = Oral bioavailability in BALB/c mouse brain at 25 mg/kg measured upto 24 hrs by LC-MS/MS analysis; assay type: ADME, organism-based
[6] = Toxicity in BALB/c mouse assessed as changes in body weight at 25 to 50 mg/kg, po administered for 5 days and measured on day 1 and day 14; assay type: organism-based; conditions: in vivo, 120 h, dose 25-50 mg/kg, time 5 day
L929 = assay: Cytotoxicity against mouse L929 cells assessed as reduction in cell viability incubated for 24 hrs by MTT assay; assay type: toxicity, cell-based; conditions: l929, 24 h
[7] = Oral bioavailability in BALB/c mouse serum at 25 mg/kg measured upto 60 mins by LC-MS/MS analysis; assay type: ADME, organism-based
Toxoplasma gondii [8] = assay: Antiparasitic activity against Toxoplasma gondii DX infected in C3H/HeOuJ mouse assessed as prolongation of survival at 25 to 50 mg/kg, po administered for 5 days starting from 24 hrs post infection by Kaplan-Meier method; assay type: functional, organism-based; conditions: dose 25-50 mg/kg, time 5.0 day
[9] = Elimination half-life in BALB/c mouse serum at 50 mg/kg, po measured upto 60 mins by LC-MS/MS analysis; assay type: ADME, organism-based; conditions: in vivo, 1 h
[10] = AUC in BALB/c mouse serum at 25 mg/kg, po measured upto 60 mins by LC-MS/MS analysis; assay type: ADME, organism-based; set-up: dose 25 mg/kg, time < 60 min, route po; conditions: in vivo, 1 h
[11] = Elimination half-life in BALB/c mouse brain at 25 mg/kg, po measured upto 24 hrs by LC-MS/MS analysis; assay type: ADME, organism-based; conditions: read-out: beta t1/2 (converted)
[12] = Tmax in BALB/c mouse brain at 25 mg/kg, po measured upto 24 hrs by LC-MS/MS analysis; assay type: ADME, organism-based
Toxoplasma gondii [13] = assay: Antiparasitic activity against Toxoplasma gondii RH infected in BALB/c mouse assessed as prolongation of animal survival at 25 to 50 mg/kg, po administered for 5 days starting from 24 hrs post infection by Kaplan-Meier method; assay type: functional, organism-based; conditions: dose 25-50 mg/kg, time 5.0 day
[14] = Toxicity in BALB/c mouse assessed as changes in body weight at 1000 mg/kg, po administered once and observed for 10 days; assay type: organism-based; conditions: in vivo, 240 h, time 10 day
Toxoplasma gondii [15] = assay: Antiparasitic activity against Toxoplasma gondii RH infected in BALB/c mouse assessed as reduction in number of bradyzoite gene copies in muscles at 25 mg/kg, po administered every 24 hrs for 5 days starting from 24 hrs post infection by real-time qPCR analysis; assay type: functional; conditions: time 5 day
[16] = Elimination half-life in BALB/c mouse serum at 25 mg/kg, po measured upto 60 mins by LC-MS/MS analysis; assay type: ADME, organism-based; conditions: in vivo, 1 h
Toxoplasma gondii [17] = assay: Antiparasitic activity against Toxoplasma gondii RH infected in BALB/c mouse assessed as reduction of daughter tachyzoites in blood at 25 to 50 mg/kg, po administered for 5 days starting from 24 hrs post infection by real-time qPCR analysis; assay type: functional, organism-based; conditions: dose 25-50 mg/kg, time 5.0 day
Toxoplasma gondii [18] = assay: Antiparasitic activity against Toxoplasma gondii RH infected in BALB/c mouse assessed as decrease in number of bradyzoite gene copies in brain at 50 mg/kg, po administered every 24 hrs for 5 days starting from 24 hrs post infection by real-time qPCR analysis; assay type: functional, organism-based; conditions: time 5.0 day
[19] = Tmax in BALB/c mouse serum at 25 mg/kg, po measured upto 60 mins by LC-MS/MS analysis; assay type: ADME, organism-based; conditions: in vivo, 1 h
[20] = AUC in BALB/c mouse serum at 50 mg/kg, po measured upto 60 mins by LC-MS/MS analysis; assay type: ADME, organism-based; set-up: time < 60 min, dose 50 mg/kg, route po; conditions: in vivo, 1 h
[21] = Toxicity in BALB/c mouse assessed as changes in creatinine level at 50 mg/kg, po administered for 5 days and measured on day 1 and day 14 by colorimetric assay; assay type: organism-based; conditions: in vivo, 120 h, time 5 day
[22] = AUC in BALB/c mouse brain at 50 mg/kg, po measured upto 24 hrs by LC-MS/MS analysis; assay type: ADME, organism-based; set-up: dose 50 mg/kg, time < 24 hrs, route po
[23] = Oral bioavailability in BALB/c mouse serum at 50 mg/kg measured upto 60 mins by LC-MS/MS analysis; assay type: ADME, organism-based
[24] = Oral bioavailability in BALB/c mouse brain at 50 mg/kg measured upto 24 hrs by LC-MS/MS analysis; assay type: ADME, organism-based
[25] = Toxicity in BALB/c mouse assessed as changes in liver weight at 50 mg/kg, po administered for 5 days and measured after 1 day; assay type: organism-based; conditions: in vivo, 120 h, time 5 day
[26] = Cmax in BALB/c mouse serum at 50 mg/kg, po measured upto 60 mins by LC-MS/MS analysis; assay type: ADME, organism-based; set-up: time < 60 min, dose 50 mg/kg, route po; conditions: in vivo, 1 h
[27] = AUC in BALB/c mouse brain at 25 mg/kg, po measured upto 24 hrs by LC-MS/MS analysis; assay type: ADME, organism-based; set-up: time < 24 hrs, dose 25 mg/kg, route po
[28] = Cmax in BALB/c mouse serum at 25 mg/kg, po measured upto 60 mins by LC-MS/MS analysis; assay type: ADME, organism-based; set-up: dose 25 mg/kg, time < 60 min, route po; conditions: in vivo, 1 h
[29] = Toxicity in BALB/c mouse assessed as changes in size of hepatocyte nuclei at 50 mg/kg, po administered for 5 days and measured after 1 day by hematoxylin-eosin staining based microscopic analysis; assay type: organism-based; conditions: hepatocytes, 120 h, time 5 day
[30] = Cmax in BALB/c mouse brain at 25 mg/kg, po measured upto 24 hrs by LC-MS/MS analysis; assay type: ADME, organism-based; set-up: time < 24 hrs, dose 25 mg/kg, route po; conditions: in vivo
[31] = Toxicity in BALB/c mouse assessed as changes in size of hepatocyte nuclei at 50 mg/kg, po administered for 5 days and measured after 14 days by hematoxylin-eosin staining based microscopic analysis; assay type: organism-based; conditions: hepatocytes, 120 h, time 5 day
Toxoplasma gondii [32] = assay: Antiparasitic activity against Toxoplasma gondii RH infected in BALB/c mouse assessed as reduction of bradyzoite gene copies in heart at 50 mg/kg, po administered every 12 and 24 hrs for 5 days starting from 24 hrs post infection by real-time qPCR analysis; assay type: functional, organism-based; conditions: time 5.0 day
[33] = Toxicity in BALB/c mouse assessed as disseminated necrosis of hepatocytes at 50 mg/kg, po administered for 5 days and measured after 1 day by hematoxylin-eosin staining based microscopic analysis; assay type: organism-based; conditions: in vivo, 120 h, time 5 day
[34] = Tmax in BALB/c mouse brain at 50 mg/kg, po measured upto 24 hrs by LC-MS/MS analysis; assay type: ADME, organism-based
[35] = Toxicity in BALB/c mouse assessed as changes in serum AST level at 50 mg/kg, po administered for 5 days and measured on day 1 and day 14 by ELISA method; assay type: organism-based; conditions: in vivo, 120 h, time 5 day
HS27 = assay: Cytotoxicity against human HS27 cells assessed as reduction in cell viability; assay type: toxicity, cell-based
Toxoplasma gondii [36] = assay: Antiparasitic activity against Toxoplasma gondii RH infected in BALB/c mouse assessed as decrease in IFNgamma level in serum at 25 to 50 mg/kg, po administered for 5 days starting from 24 hrs post infection by ELISA method; assay type: functional, organism-based; conditions: dose 25-50 mg/kg, time 5.0 day
[37] = Tmax in BALB/c mouse serum at 50 mg/kg, po measured upto 60 mins by LC-MS/MS analysis; assay type: ADME, organism-based; conditions: in vivo, 1 h
[38] = Elimination half-life in BALB/c mouse brain at 50 mg/kg, po measured upto 24 hrs by LC-MS/MS analysis; assay type: ADME, organism-based; conditions: read-out: beta t1/2 (converted)
Toxoplasma gondii [39] = assay: Antiparasitic activity against Toxoplasma gondii RH infected in BALB/c mouse assessed as survival rate at 50 mg/kg, po administered every 12 hrs for 5 days starting from 24 hrs post infection by Kaplan-Meier method; assay type: functional; conditions: 120 h, time 5 day
[40] = Toxicity in BALB/c mouse assessed as disseminated necrosis of hepatocytes at 50 mg/kg, po administered for 5 days and measured after 14 days by hematoxylin-eosin staining based microscopic analysis; assay type: organism-based; conditions: in vivo, 120 h, time 5 day

Compound: Cc1nc[nH]c1C(=O)NNC(=S)Nc1cccc(I)c1
- Activity [1]: Non-Toxic
- IC50 (Toxoplasma gondii [2]): 25.7 µM
- Cmax [3]: 174.33 ng/mg
- Activity [4]: Toxic
- bioavailability [5]: 0.46%
- Activity [6]: Non-Toxic
- CC30 (L929): 213.27 µM
- bioavailability [7]: 30.1%
- Activity (Toxoplasma gondii [8]): Active
- beta t1/2 [9]: 23.4 min
- AUC [10]: 150550 ng·h/mL
- half-life [11]: 29.4 min
- Tmax [12]: 15 min
- Activity (Toxoplasma gondii [13]): Active
- Activity [14]: Non-Toxic
- Activity (Toxoplasma gondii [15]): 16
- beta t1/2 [16]: 24.6 min
- Activity (Toxoplasma gondii [17]): Active
- Activity (Toxoplasma gondii [18]): Active
- Tmax [19]: 15 min
- AUC [20]: 170390 ng·h/mL
- Activity [21]: Non-Toxic
- AUC at 24 h [22]: 167 ng·h/mL
- bioavailability [23]: 17%
- bioavailability [24]: 0.98%
- Activity [25]: Non-Toxic
- Cmax [26]: 35320 ng/mL
- AUC at 24 h [27]: 69.9 ng·h/mL
- Cmax [28]: 30850 ng/mL
- Activity [29]: Toxic
- Cmax [30]: 94.16 ng/mg
- Activity [31]: Toxic
- Activity (Toxoplasma gondii [32]): Active
- Activity [33]: Toxic
- Tmax [34]: 30 min
- Activity [35]: Non-Toxic
- CC30 (HS27): 209.45 µM
- Activity (Toxoplasma gondii [36]): Active
- Tmax [37]: 15 min
- half-life [38]: 45.6 min
- survival at 50 mg/kg (Toxoplasma gondii [39]): 20%
- Activity [40]: Toxic
